# Like-named read-outs stand apart in the source and are kept apart here. *1 amine or outer side, *2 acyl side, *3 side chain or, on linkers, in order; H or OH if unused. Where a SMILES comes first, the peptide text is derived from it. Bridges are numbered along the chain shown (N, C = ends). [ ]: non-standard residue; d: D form. The star is where a group is joined. C20 diacid = O=C(O)CCCCCCCCCCCCCCCCCCC(=O)*; γGlu = O=C(O)[C@H](CCC(=O)[*:2])N[*:1]; Hyp = O=C(O)[C@@H]1C[C@@H](O)CN1; NMeI = CC[C@H](C)[C@H](NC)C(=O)O; Sar = CNCC(=O)O
# How the values were obtained:
# [1] = biological target: T1, human calcitonin receptor (hCTR2) (Homo sapiens, UniProt P30988); assay: hCTR2 cAMP assay (AlphaScreen) in COS7 cells; type: cell-based; settings: cAMP induction, COS7 cells expressing hCTR2; Table 1; read-out: hCTR2 EC50
# T1 construct: expressed in transfected cells
# T1 sequence (P30988 25-474): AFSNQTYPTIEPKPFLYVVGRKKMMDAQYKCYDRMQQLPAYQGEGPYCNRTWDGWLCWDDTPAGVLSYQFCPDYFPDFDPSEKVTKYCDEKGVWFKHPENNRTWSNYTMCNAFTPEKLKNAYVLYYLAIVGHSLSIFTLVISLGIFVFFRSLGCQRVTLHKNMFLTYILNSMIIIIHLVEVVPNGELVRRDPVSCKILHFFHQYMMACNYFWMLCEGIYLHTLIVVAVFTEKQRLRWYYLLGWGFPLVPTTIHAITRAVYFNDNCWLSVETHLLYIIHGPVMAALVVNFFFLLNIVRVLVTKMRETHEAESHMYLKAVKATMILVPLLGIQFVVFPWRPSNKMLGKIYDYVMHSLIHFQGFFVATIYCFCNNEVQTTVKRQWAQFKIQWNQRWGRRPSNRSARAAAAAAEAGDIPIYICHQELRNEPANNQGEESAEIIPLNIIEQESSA
# Method in brief: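 Stable hCTR2 clone in RAMP-naïve COS7 cells stimulated 15 min at 37 °C with increasing peptide concentrations in Tyrode buffer pH 7.4 containing IBMX and 0.1% casein. cAMP in lysates measured by AlphaScreen; EC50 from 4-parameter logistic fit.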
# [2] = Assessment of solubility (turbidity absorbance at 325 nm); type: physicochemical; settings: named as exception to solubility ≥1 mg/ml
# Experimental: A stock solution of the test peptide (2 mg/ml; determined from the weighed amount of peptide) in demineralized water adjusted to pH 2.5 with HCl was prepared, and aliquots were diluted 1:1 in 100 mM acetate buffer (pH 4.0 and pH 5.0), 100 mM histidine buffer (pH 6.0 and pH 7.0) and 100 mM phosphate buffer (pH 6.0, pH 7.0 and pH7.5), respectively, and loaded in a standard flat-bottom, non-sterile 96-well UV Microplate. The absorbance of samples (single samples, n=1) at 280 and 325 nm was measured in an absorbance-based plate reader, which was preheated to ambient temperature (typically 25° C.). The turbidity absorbance criterion for a peptide solubility of ≥1 mg/ml was an absorbance at 325 nm of s 0.02 absorbance units (which is 5 to 6 times the standard deviation of 8 buffer samples in a plate).
# [3] = Assessment of physical stability (Thioflavin T fibrillation); type: physicochemical; design: key: FND = fibrillation not detected; FD = fibrillation detected; settings: 1 mg/ml, 40° C., ThT
# Method in brief: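 1 mg/ml peptide with 40 μM ThT in 50 mM phosphate pH 7.0, 50 mM histidine pH 7.0 or 50 mM acetate pH 4.0, in triplicate. Fluorescence read every 10 min after 300 s agitation over 96 h at 40 °C. Lag-time (h) is the intersection of linear fits to stable and growth phases.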
# [4] = Assessment of chemical stability (RP-HPLC normalized purity); type: physicochemical; settings: 7 days, 40° C., Table 1
# Method in brief: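 Peptides at 0.2 mg/ml in water adjusted to pH 4, 6, 7.5 or 9, incubated at 40° C for 7 days. Main-peak area-% by RP-HPLC (C8 ammonium formate or C18 TFA gradient, UV 220 nm), normalized to T=0 as 100.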
# [5] = biological target: T2, human amylin receptor 3 (hAMYR3), hCTR2 co-expressed with hRAMP3 (Homo sapiens, UniProt O60896+P30988); assay: hAMYR3 cAMP assay (AlphaScreen) in COS7 cells; type: cell-based; settings: cAMP induction, COS7 cells expressing hAMYR3; Table 1; read-out: hAMYR3 EC50
# T2 construct: expressed in transfected cells
# T2 sequence (P30988 25-474): T1 sequence (P30988 25-474)
# T2 sequence (O60896 24-148 partner): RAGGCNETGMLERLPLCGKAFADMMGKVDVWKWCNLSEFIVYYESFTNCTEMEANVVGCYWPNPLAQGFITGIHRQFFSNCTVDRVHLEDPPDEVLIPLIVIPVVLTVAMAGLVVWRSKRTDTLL
# Method in brief: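 Stable COS7 clone co-expressing hCTR2 and hRAMP3 was exposed to increasing peptide concentrations in Tyrode buffer (pH 7.4) with 100 µM IBMX and 0.1% casein for 15 min at 37 °C. Lysate cAMP was measured by AlphaScreen; EC50 came from 4-parameter logistic fitting.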
EC50 [1],"solubility ([2]; pH 6.0, read-out: solubility at pH 6.0)","Fibrillation pH 4.0 (Ac) ([3]; 50 mM acetate buffer pH 4.0, 96 hours)","Fibrillation pH 7.0 (His) ([3]; 50 mM histidine buffer pH 7.0, 96 hours)","Fibrillation pH 7.0 (Phos.) ([3]; 50 mM phosphate buffer pH 7.0, 96 hours)","Normalized purity after 7 days, 40° C., pH 4 ([4]; pH 4, 0.2 mg/ml)","Normalized purity after 7 days, 40° C., pH 6 ([4]; pH 6, 0.2 mg/ml)","Normalized purity after 7 days, 40° C., pH 7.5 ([4]; pH 7.5, 0.2 mg/ml)","Normalized purity after 7 days, 40° C., pH 9 ([4]; pH 9, 0.2 mg/ml)",EC50 [5],"solubility ([2]; pH 7.0, read-out: solubility at pH 7.0)","solubility ([2]; phosphate buffer, pH 7.5, read-out: solubility at pH 7.5)",SMILES
0.16 nM,< 1000 µg/mL,FND,FD,FD,A (A = >90%),A (A = >90%),B (B = 70-90%),B (B = 70-90%),–,–,–,"CC[C@H](C)[C@@H](C(=O)N[C@@H](CC(C)C)C(=O)N[C@@H](CO)C(=O)N[C@@H](CO)C(=O)N[C@H](C(=O)N[C@@H](CCC(=O)O)C(=O)N[C@H](C(=O)NCC(=O)N[C@@H](CO)C(=O)N[C@@H](Cc1ccccc1)C(=O)N[C@H](C(=O)N1C[C@H](O)C[C@H]1C(N)=O)[C@@H](C)O)C(C)C)[C@@H](C)O)N(C)C(=O)[C@H](C)NC(=O)CN(C)C(=O)[C@H](Cc1ccccc1)NC(=O)[C@H](CO)NC(=O)[C@H](CO)NC(=O)[C@H](CCCNC(=N)N)NC(=O)[C@@H](NC(=O)[C@H](CC(C)C)NC(=O)[C@H](Cc1ccccc1)NC(=O)[C@H](Cc1c[nH]cn1)NC(=O)[C@H](C)NC(=O)[C@H](CC(C)C)NC(=O)[C@H](CCCNC(=N)N)NC(=O)[C@H](CCC(=O)O)NC(=O)[C@@H](NC(=O)[C@H](C)NC(=O)[C@@H]1CSSC[C@H](NC(=O)[C@H](CCCNC(=N)N)NC(=O)CC[C@H](NC(=O)CCCCCCCCCCCCCCCCCCC(=O)O)C(=O)O)C(=O)NCC(=O)N[C@@H]([C@@H](C)O)C(=O)N[C@@H](C)C(=O)N[C@@H]([C@@H](C)O)C(=O)N1)[C@@H](C)O)[C@@H](C)O [Compound 10, [19CD]-isoGlu-R-C( )-GTAT-C( )-ATERLAHFLTRSSF-Gly(Me)-A-Ile(Me)-LSSTEVGSFT-Hyp-NH2] ({C20 diacid-γGlu}-RCGTATCATERLAHFLTRSSF[Sar]A[NMeI]LSSTEVGSFT[Hyp]-NH2; disulfide 2-7)"
0.09 nM,–,–,–,–,–,–,–,–,0.29 nM,< 1000 µg/mL,< 1000 µg/mL,"CC[C@H](C)[C@@H](C(=O)N[C@@H](CC(C)C)C(=O)N[C@@H](CO)C(=O)N[C@@H](CO)C(=O)N[C@H](C(=O)N[C@@H](CCC(=O)O)C(=O)N[C@H](C(=O)NCC(=O)N[C@@H](CO)C(=O)N[C@@H](CO)C(=O)N[C@H](C(=O)N1C[C@H](O)C[C@H]1C(N)=O)[C@@H](C)O)C(C)C)[C@@H](C)O)N(C)C(=O)[C@H](C)NC(=O)CN(C)C(=O)[C@H](Cc1ccccc1)NC(=O)[C@H](CO)NC(=O)[C@H](CO)NC(=O)[C@H](CCCNC(=N)N)NC(=O)[C@@H](NC(=O)[C@H](CC(C)C)NC(=O)[C@H](Cc1ccccc1)NC(=O)[C@H](Cc1c[nH]cn1)NC(=O)[C@H](C)NC(=O)[C@H](CC(C)C)NC(=O)[C@H](CCCNC(=N)N)NC(=O)[C@H](CCC(=O)O)NC(=O)[C@@H](NC(=O)[C@H](C)NC(=O)[C@@H]1CSSC[C@H](NC(=O)[C@H](CCCNC(=N)N)NC(=O)CC[C@H](NC(=O)CCCCCCCCCCCCCCCCCCC(=O)O)C(=O)O)C(=O)NCC(=O)N[C@@H]([C@@H](C)O)C(=O)N[C@@H](C)C(=O)N[C@@H]([C@@H](C)O)C(=O)N1)[C@@H](C)O)C(C)C [Compound 31, [19CD]-isoGlu-R-C( )-GTAT-C( )-ATERLAHFLVRSSF-Gly(Me)-A-Ile(Me)-LSSTEVGSST-Hyp-NH2] ({C20 diacid-γGlu}-RCGTATCATERLAHFLVRSSF[Sar]A[NMeI]LSSTEVGSST[Hyp]-NH2; disulfide 2-7)"
